From patent publication US20220411372A1, “SMALL-MOLECULE INHIBITORS FOR THE B-CATENIN/B-CELL LYMPHOMA 9 PROTEIN-PROTEIN INTERACTION” (H. Lee Moffitt Cancer Center and Research Institute, Inc., priority 2019, published 2022) come the findings set out here.

A value given as a limit tells only on which side of the number the result lay.

The first test has as its target T1, β-catenin/BCL9 PPI (Homo sapiens, UniProt P35222).
T1 construct: Full-length β-catenin (residues 1-781) were cloned into a pET-28b vector; made in house; host or cells: E. coli BL21 DE3 (β-catenin); BCL9 peptide synthesized by InnoPep Inc
T1 sequence (P35222 1-781): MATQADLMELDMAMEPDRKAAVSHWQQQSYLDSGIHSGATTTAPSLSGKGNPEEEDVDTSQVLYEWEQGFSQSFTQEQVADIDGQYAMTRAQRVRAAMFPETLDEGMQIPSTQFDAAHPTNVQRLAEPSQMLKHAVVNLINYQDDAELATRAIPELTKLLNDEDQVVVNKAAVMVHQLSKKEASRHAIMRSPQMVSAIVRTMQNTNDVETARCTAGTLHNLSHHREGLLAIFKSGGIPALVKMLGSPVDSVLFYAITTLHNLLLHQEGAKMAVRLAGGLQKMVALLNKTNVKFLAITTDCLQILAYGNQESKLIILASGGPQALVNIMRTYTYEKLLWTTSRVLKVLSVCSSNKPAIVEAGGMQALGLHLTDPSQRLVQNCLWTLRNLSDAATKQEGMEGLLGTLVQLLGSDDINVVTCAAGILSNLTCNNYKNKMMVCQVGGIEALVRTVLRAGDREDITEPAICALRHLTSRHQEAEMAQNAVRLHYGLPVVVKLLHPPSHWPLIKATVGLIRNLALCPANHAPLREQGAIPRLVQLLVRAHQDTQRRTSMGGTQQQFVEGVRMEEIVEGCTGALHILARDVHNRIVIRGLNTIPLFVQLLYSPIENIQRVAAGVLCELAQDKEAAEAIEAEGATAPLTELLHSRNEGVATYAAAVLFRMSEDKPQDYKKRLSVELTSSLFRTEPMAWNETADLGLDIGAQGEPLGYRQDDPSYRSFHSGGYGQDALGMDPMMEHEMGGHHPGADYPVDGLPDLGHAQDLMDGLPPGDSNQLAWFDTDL
The test is described as follows: AlphaScreen competitive inhibition assay of the β-catenin/BCL9 PPI. The note with it: Table 5, inhibitors 54-62; read-out: Ki. It is filed as binding. An outline of the steps: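 5 nM biotinylated BCL9 and 40 nM His6-β-catenin preincubated 30 min at 4° C in pH 7.4 Hepes buffer with 0.01% Triton X-100, 0.1% BSA, 1% DMSO; inhibitor added 1 h at 4° C, then 10 μg/mL donor/acceptor beads 1 h.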
A general note: In Alpha technology, singlet oxygen from a donor bead excites a nearby acceptor bead.
Regarding `CC(C)(Oc1cccc(N2CCC[C@@H](C(=O)N(Cc3ccc(-c4cn[nH]c4)cc3)C3CC3)C2)c1)C(=O)N1CC2(CNC2)C1` [Compound 62, (R)-6-(2-(3-(3-((4-(1H-pyrazol-4-yl)benzyl)(cyclopropyl)carbamoyl)piperidin-1-yl)phenoxy)-2-methylpropanoyl)-2,6-diazaspiro[3.3]heptan-2-ium 2,2,2-trifluoroacetate], the Ki – broadly, the dissociation constant of the complex between target and ligand, obtained from inhibition or displacement – is less than 90 µM.

Still in this test, the particulars now being: Table 8, inhibitors 82-92; read-out: Ki.
On to `O=C([C@@H]1CCCN(c2cccc(OC3(C(=O)N4CCNCC4)CC3)c2)C1)N(Cc1ccc(-c2cn[nH]c2)cc1)C1CC1` [Compound 82, (R)-4-(1-(3-(3-((4-(1H-pyrazol-4-yl)benzyl)(cyclopropyl)carbamoyl)piperidin-1-yl)phenoxy)cyclopropane-1-carbonyl)piperazin-1-ium chloride], for which the Ki was less than 10 µM. In the case of `O=C([C@@H]1CCCN(c2cccc(OC3(C(=O)N4CCNCC4)CCCC3)c2)C1)N(Cc1ccc(-c2cn[nH]c2)cc1)C1CC1` [Compound 83, (R)-4-(1-(3-(3-((4-(1H-pyrazol-4-yl)benzyl)(cyclopropyl)carbamoyl)piperidin-1-yl)phenoxy)cyclopentane-1-carbonyl)piperazin-1-ium chloride], the Ki was less than 90 µM. Consider `O=C(c1cccc(N2CCC[C@@H](C(=O)N(Cc3ccc(-c4cn[nH]c4)cc3)C3CC3)C2)c1)N1CCNCC1` [Compound 85, (R)-4-(3-(3-((4-(1H-pyrazol-4-yl)benzyl)(cyclopropyl)carbamoyl)piperidin-1-yl)benzoyl)piperazin-1-ium chloride], for which the inhibition constant Ki was less than 90 µM. On the same count and under the same terms, the same measure for `O=C(C(Oc1cccc(N2CCC[C@@H](C(=O)N(Cc3ccc(-c4cn[nH]c4)cc3)C3CC3)C2)c1)c1ccccc1)N1CCNCC1` (stereo partly drawn) [Compound 86, 4-(2-(3-((R)-3-((4-(1H-pyrazol-4-yl)benzyl)(cyclopropyl)carbamoyl)piperidin-1-yl)phenoxy)-2-phenylacetyl)piperazin-1-ium chloride]: less than 30 µM. Same read-out and setting: the same measure for `O=C(C(Cc1ccccc1)Oc1cccc(N2CCC[C@@H](C(=O)N(Cc3ccc(-c4cn[nH]c4)cc3)C3CC3)C2)c1)N1CCNCC1` (stereo partly drawn) [Compound 87, 4-(2-(3-((R)-3-((4-(1H-pyrazol-4-yl)benzyl)(cyclopropyl)carbamoyl)piperidin-1-yl)phenoxy)-3-phenylpropanoyl)piperazin-1-ium chloride]: less than 90 µM. For the compound `CC(C)(Oc1cccc(N2CCC[C@@H](C(=O)N(Cc3ccc(-c4cn[nH]c4)cc3OCCN)C3CC3)C2)c1)C(=O)N1CCNCC1` [Compound 89, (R)-4-(2-(3-(3-((2-(2-ammonioethoxy)-4-(1H-pyrazol-4-yl)benzyl)(cyclopropyl)carbamoyl)piperidin-1-yl)phenoxy)-2-methylpropanoyl)piperazin-1-ium chlorine], the Ki is less than 90 µM. Still for that read-out and setting: next, `CC(C)c1ccc2c(c1)CCN(C(=O)[C@@H]1CCCN(c3cccc(OC(C)(C)C(=O)N4CCNCC4)c3)C1)C2` [Compound 90, (R)-4-(2-(3-(3-(6-isopropyl-1,2,3,4-tetrahydroisoquinoline-2-carbonyl)piperidin-1-yl)phenoxy)-2-methylpropanoyl)piperazin-1-ium chlorine]: less than 30 µM.

`CC(C)(Oc1cccc(N2CCC[C@@H](C(=O)N3CCc4cc(-c5ccccc5)ccc4C3)C2)c1)C(=O)N1CCNCC1` [Compound 91, (R)-4-(2-methyl-2-(3-(3-(6-phenyl-1,2,3,4-tetrahydroisoquinoline-2-carbonyl)piperidin-1-yl)phenoxy)propanoyl)piperazin-1-ium chlorine]: the Ki is less than 5 µM.

Regarding `CC(C)(Oc1cccc(N2CCC[C@@H](C(=O)N3CCc4cc(-c5cn[nH]c5)ccc4C3)C2)c1)C(=O)N1CCNCC1` [Compound 92, (R)-4-(2-(3-(3-(6-(1H-pyrazol-4-yl)-1,2,3,4-tetrahydroisoquinoline-2-carbonyl)piperidin-1-yl)phenoxy)-2-methylpropanoyl)piperazin-1-ium chloride], the Ki is less than 90 µM.

Still in this test, the particulars now being: Table 9, inhibitors 93-98, racemic; read-out: Ki.
As for “(R)-2-(3-(3-(cyclopropyl(4-isopropylbenzyl)carbamoyl)piperidin-1-yl)phenoxy)-2-methylpropanoic acid [Compound 98]”, the Ki was not above 90 µM.

Still in this test, the particulars now being: Table 12, inhibitors 109-112; read-out: Ki.
For `CCOc1cc(-c2cn[nH]c2)ccc1CN(C(=O)[C@@H]1CCCN(c2cccc(OC(C)(C)C(=O)N3CCNCC3)c2)C1)C1CC1` [Compound 109, (R)-4-(2-(3-(3-(Cyclopropyl(2-ethoxy-4-(1H-pyrazol-4-yl)benzyl)carbamoyl)piperidin-1-yl)phenoxy)-2-methylpropanoyl)piperazin-1-ium chloride], the Ki is not above 30 µM. Same read-out and setting: the same measure for `CC(C)Oc1cc(-c2cn[nH]c2)ccc1CN(C(=O)[C@@H]1CCCN(c2cccc(OC(C)(C)C(=O)N3CCNCC3)c2)C1)C1CC1` [Compound 110, (R)-4-(2-(3-(3-(Cyclopropyl(2-isopropoxy-4-(1H-pyrazol-4-yl)benzyl)carbamoyl)piperidin-1-yl)phenoxy)-2-methylpropanoyl)piperazin-1-ium chloride]: not above 30 µM; for `CCCOc1cc(-c2cn[nH]c2)ccc1CN(C(=O)[C@@H]1CCCN(c2cccc(OC(C)(C)C(=O)N3CCNCC3)c2)C1)C1CC1` [Compound 111, (R)-4-(2-(3-(3-(Cyclopropyl(2-propoxy-4-(1H-pyrazol-4-yl)benzyl)carbamoyl)piperidin-1-yl)phenoxy)-2-methylpropanoyl)piperazin-1-ium chloride]: not above 30 µM; for `CC(C)(Oc1cncc(N2CCC[C@@H](C(=O)N(Cc3ccc(-c4cn[nH]c4)cc3)C3CC3)C2)c1)C(=O)N1CCNCC1` [Compound 112, (R)-4-(2-((5-(3-((4-(1H-pyrazol-4-yl)benzyl)(cyclopropyl)carbamoyl)piperidin-1-yl)pyridin-3-yl)oxy)-2-methylpropanoyl)piperazin-1-ium chloride]: not above 30 µM.
